Experimental data: the NIST ThermoML archive (doi:10.1016/j.jct.2015.09.030)
Numbers after ± are expanded uncertainties.

Experiment: xn = mol fraction of the nth substance listed
Settings: 100 kPa, Liquid; for mass density: Vibrating tube method; for viscosity: Falling or rolling sphere viscometry

Structure (SMILES): CCCCCCCCCCCCCC[P+](CCCCCC)(CCCCCC)CCCCCC.[Cl-] [trihexyl(tetradecyl)phosphonium chloride] + CO
- mass density (290.15 K, x1 = 0.0156): 815.9 ± 6 kg/m3
- mass density (290.15 K, x1 = 0.0351): 832.7 ± 6 kg/m3
- mass density (290.15 K, x1 = 0.056): 845.2 ± 6 kg/m3
- mass density (290.15 K, x1 = 0.0811): 856.7 ± 6 kg/m3
- mass density (290.15 K, x1 = 0.1271): 869.2 ± 6 kg/m3
- mass density (290.15 K, x1 = 0.2092): 880.2 ± 6 kg/m3
- mass density (290.15 K, x1 = 0.3681): 889.1 ± 6 kg/m3
- mass density (290.15 K, x1 = 0.4851): 891.6 ± 6 kg/m3
- mass density (290.15 K, x1 = 0.6453): 894.2 ± 6 kg/m3
- mass density (290.15 K, x1 = 0.7844): 895.8 ± 6.1 kg/m3
- mass density (290.15 K, x1 = 0.8997): 896.8 ± 6.1 kg/m3
- mass density (290.15 K, x1 = 1): 897.5 ± 6.2 kg/m3
- mass density (293.15 K, x1 = 0.0156): 813.3 ± 6 kg/m3
- mass density (293.15 K, x1 = 0.0351): 830.4 ± 6 kg/m3
- mass density (293.15 K, x1 = 0.056): 842.9 ± 6 kg/m3
- mass density (293.15 K, x1 = 0.0811): 854.5 ± 6 kg/m3
- mass density (293.15 K, x1 = 0.1271): 867.2 ± 6 kg/m3
- mass density (293.15 K, x1 = 0.2092): 878.2 ± 6 kg/m3
- mass density (293.15 K, x1 = 0.3681): 887.2 ± 6 kg/m3
- mass density (293.15 K, x1 = 0.4851): 889.9 ± 6 kg/m3
- mass density (293.15 K, x1 = 0.6453): 892.5 ± 6 kg/m3
- mass density (293.15 K, x1 = 0.7844): 894 ± 6.1 kg/m3
- mass density (293.15 K, x1 = 0.8997): 895.1 ± 6.1 kg/m3
- mass density (293.15 K, x1 = 1): 895.8 ± 6.2 kg/m3
- viscosity (295.15 K, x1 = 0.0156): 1.033 ± 0.1 mPa·s
- viscosity (295.15 K, x1 = 0.0351): 1.798 ± 0.18 mPa·s
- viscosity (295.15 K, x1 = 0.056): 3.34 ± 0.34 mPa·s
- viscosity (295.15 K, x1 = 0.0811): 6.279 ± 0.63 mPa·s
- viscosity (295.15 K, x1 = 0.1271): 15.65 ± 1.6 mPa·s
- viscosity (295.15 K, x1 = 0.2092): 45.36 ± 4.6 mPa·s
- viscosity (295.15 K, x1 = 0.3681): 173 ± 19 mPa·s
- viscosity (295.15 K, x1 = 0.4851): 401.5 ± 48 mPa·s
- viscosity (295.15 K, x1 = 0.6453): 820.4 ± 110 mPa·s
- viscosity (295.15 K, x1 = 0.7844): 1285 ± 180 mPa·s
- viscosity (295.15 K, x1 = 0.8997): 1687 ± 250 mPa·s
- viscosity (295.15 K, x1 = 1): 1996 ± 300 mPa·s
- mass density (295.15 K, x1 = 0.0156): 811.2 ± 6 kg/m3
- mass density (295.15 K, x1 = 0.0351): 828.8 ± 6 kg/m3
- mass density (295.15 K, x1 = 0.056): 841.4 ± 6 kg/m3
- mass density (295.15 K, x1 = 0.0811): 853.1 ± 6 kg/m3
- mass density (295.15 K, x1 = 0.1271): 865.8 ± 6 kg/m3
- mass density (295.15 K, x1 = 0.2092): 876.9 ± 6 kg/m3
- mass density (295.15 K, x1 = 0.3681): 885.9 ± 6 kg/m3
- mass density (295.15 K, x1 = 0.4851): 888.9 ± 6 kg/m3
- mass density (295.15 K, x1 = 0.6453): 891.4 ± 6 kg/m3
- mass density (295.15 K, x1 = 0.7844): 892.9 ± 6.1 kg/m3
- mass density (295.15 K, x1 = 0.8997): 894 ± 6.1 kg/m3
- mass density (295.15 K, x1 = 1): 894.6 ± 6.2 kg/m3
- viscosity (298.15 K, x1 = 0.0156): 0.988 ± 0.099 mPa·s
- viscosity (298.15 K, x1 = 0.0351): 1.695 ± 0.17 mPa·s
- viscosity (298.15 K, x1 = 0.056): 3.092 ± 0.31 mPa·s
- viscosity (298.15 K, x1 = 0.0811): 5.794 ± 0.58 mPa·s
- viscosity (298.15 K, x1 = 0.1271): 14.29 ± 1.4 mPa·s
- viscosity (298.15 K, x1 = 0.2092): 40.2 ± 4.1 mPa·s
- viscosity (298.15 K, x1 = 0.3681): 149.2 ± 16 mPa·s
- viscosity (298.15 K, x1 = 0.4851): 339.2 ± 40 mPa·s
- viscosity (298.15 K, x1 = 0.6453): 670 ± 86 mPa·s
- viscosity (298.15 K, x1 = 0.7844): 1046 ± 140 mPa·s
- viscosity (298.15 K, x1 = 0.8997): 1392 ± 200 mPa·s
- viscosity (298.15 K, x1 = 1): 1683 ± 250 mPa·s
- mass density (298.15 K, x1 = 0.0156): 809.1 ± 6 kg/m3
- mass density (298.15 K, x1 = 0.0351): 826.4 ± 6 kg/m3
- mass density (298.15 K, x1 = 0.056): 839.2 ± 6 kg/m3
- mass density (298.15 K, x1 = 0.0811): 851 ± 6 kg/m3
- mass density (298.15 K, x1 = 0.1271): 863.8 ± 6 kg/m3
- mass density (298.15 K, x1 = 0.2092): 875 ± 6 kg/m3
- mass density (298.15 K, x1 = 0.3681): 884 ± 6 kg/m3
- mass density (298.15 K, x1 = 0.4851): 887.1 ± 6 kg/m3
- mass density (298.15 K, x1 = 0.6453): 889.7 ± 6 kg/m3
- mass density (298.15 K, x1 = 0.7844): 891.2 ± 6.1 kg/m3
- mass density (298.15 K, x1 = 0.8997): 892.1 ± 6.1 kg/m3
- mass density (298.15 K, x1 = 1): 892.8 ± 6.2 kg/m3
- viscosity (303.15 K, x1 = 0.0156): 0.911 ± 0.091 mPa·s
- viscosity (303.15 K, x1 = 0.0351): 1.542 ± 0.15 mPa·s
- viscosity (303.15 K, x1 = 0.056): 2.704 ± 0.27 mPa·s
- viscosity (303.15 K, x1 = 0.0811): 5.089 ± 0.51 mPa·s
- viscosity (303.15 K, x1 = 0.1271): 12.28 ± 1.2 mPa·s
- viscosity (303.15 K, x1 = 0.2092): 33.24 ± 3.4 mPa·s
- viscosity (303.15 K, x1 = 0.3681): 116.2 ± 12 mPa·s
- viscosity (303.15 K, x1 = 0.4851): 255.5 ± 29 mPa·s
- viscosity (303.15 K, x1 = 0.6453): 486.4 ± 60 mPa·s
- viscosity (303.15 K, x1 = 0.7844): 744.5 ± 97 mPa·s
- viscosity (303.15 K, x1 = 0.8997): 978.6 ± 130 mPa·s
- viscosity (303.15 K, x1 = 1): 1174 ± 160 mPa·s
- mass density (303.15 K, x1 = 0.0156): 804.8 ± 6 kg/m3
- mass density (303.15 K, x1 = 0.0351): 822.4 ± 6 kg/m3
- mass density (303.15 K, x1 = 0.056): 835.4 ± 6 kg/m3
- mass density (303.15 K, x1 = 0.0811): 847.4 ± 6 kg/m3
- mass density (303.15 K, x1 = 0.1271): 860.4 ± 6 kg/m3
- mass density (303.15 K, x1 = 0.2092): 871.8 ± 6 kg/m3
- mass density (303.15 K, x1 = 0.3681): 880.9 ± 6 kg/m3
- mass density (303.15 K, x1 = 0.4851): 884 ± 6 kg/m3
- mass density (303.15 K, x1 = 0.6453): 886.7 ± 6 kg/m3
- mass density (303.15 K, x1 = 0.7844): 888.2 ± 6.1 kg/m3
- mass density (303.15 K, x1 = 0.8997): 889.1 ± 6.1 kg/m3
- mass density (303.15 K, x1 = 1): 889.8 ± 6.2 kg/m3
- viscosity (308.15 K, x1 = 0.0156): 0.842 ± 0.084 mPa·s
- viscosity (308.15 K, x1 = 0.0351): 1.407 ± 0.14 mPa·s
- viscosity (308.15 K, x1 = 0.056): 2.287 ± 0.23 mPa·s
- viscosity (308.15 K, x1 = 0.0811): 4.496 ± 0.45 mPa·s
- viscosity (308.15 K, x1 = 0.1271): 10.64 ± 1.1 mPa·s
- viscosity (308.15 K, x1 = 0.2092): 27.72 ± 2.8 mPa·s
- viscosity (308.15 K, x1 = 0.3681): 90.86 ± 9.3 mPa·s
- viscosity (308.15 K, x1 = 0.4851): 197.3 ± 22 mPa·s
- viscosity (308.15 K, x1 = 0.6453): 363.3 ± 43 mPa·s
- viscosity (308.15 K, x1 = 0.7844): 543.1 ± 68 mPa·s
- viscosity (308.15 K, x1 = 0.8997): 700 ± 91 mPa·s
- viscosity (308.15 K, x1 = 1): 824.1 ± 110 mPa·s
- mass density (308.15 K, x1 = 0.0156): 800.5 ± 6 kg/m3
- mass density (308.15 K, x1 = 0.0351): 818.5 ± 6 kg/m3
- mass density (308.15 K, x1 = 0.056): 831.6 ± 6 kg/m3
- mass density (308.15 K, x1 = 0.0811): 843.9 ± 6 kg/m3
- mass density (308.15 K, x1 = 0.1271): 857.1 ± 6 kg/m3
- mass density (308.15 K, x1 = 0.2092): 868.5 ± 6 kg/m3
- mass density (308.15 K, x1 = 0.3681): 877.8 ± 6 kg/m3
- mass density (308.15 K, x1 = 0.4851): 881 ± 6 kg/m3
- mass density (308.15 K, x1 = 0.6453): 883.7 ± 6 kg/m3
- mass density (308.15 K, x1 = 0.7844): 885.3 ± 6.1 kg/m3
- mass density (308.15 K, x1 = 0.8997): 886.2 ± 6.1 kg/m3
- mass density (308.15 K, x1 = 1): 886.9 ± 6.2 kg/m3
- viscosity (313.15 K, x1 = 0.0156): 0.79 ± 0.079 mPa·s
- viscosity (313.15 K, x1 = 0.0351): 1.289 ± 0.13 mPa·s
- viscosity (313.15 K, x1 = 0.056): 1.901 ± 0.19 mPa·s
- viscosity (313.15 K, x1 = 0.0811): 4.071 ± 0.41 mPa·s
- viscosity (313.15 K, x1 = 0.1271): 9.437 ± 0.95 mPa·s
- viscosity (313.15 K, x1 = 0.2092): 23.32 ± 2.4 mPa·s
- viscosity (313.15 K, x1 = 0.3681): 81.39 ± 8.3 mPa·s
- viscosity (313.15 K, x1 = 0.4851): 151.5 ± 16 mPa·s
- viscosity (313.15 K, x1 = 0.6453): 271.4 ± 31 mPa·s
- viscosity (313.15 K, x1 = 0.7844): 396.8 ± 47 mPa·s
- viscosity (313.15 K, x1 = 0.8997): 505.7 ± 62 mPa·s
- viscosity (313.15 K, x1 = 1): 593.7 ± 75 mPa·s
- mass density (313.15 K, x1 = 0.0156): 796.3 ± 6 kg/m3
- mass density (313.15 K, x1 = 0.0351): 814.5 ± 6 kg/m3
- mass density (313.15 K, x1 = 0.056): 827.9 ± 6 kg/m3
- mass density (313.15 K, x1 = 0.2092): 865.3 ± 6 kg/m3
- mass density (313.15 K, x1 = 0.3681): 874.5 ± 6 kg/m3
- mass density (313.15 K, x1 = 0.4851): 878.6 ± 6 kg/m3
- mass density (313.15 K, x1 = 0.6453): 880.8 ± 6 kg/m3
- mass density (313.15 K, x1 = 0.7844): 882.6 ± 6.1 kg/m3
- mass density (313.15 K, x1 = 0.8997): 883.2 ± 6.1 kg/m3
- mass density (313.15 K, x1 = 1): 883.9 ± 6.2 kg/m3
